This is an account of results in patent US20040242459A1 (priority 2001, published 2004).

Experiment [1] deals with T1, recombinant human PPARγ (GST-PPARγ) (Homo sapiens, UniProt P37231).
T1 construct: The full length human cDNA for PPARγ 2 was subcloned into the pGEX-2 T expression vector; made in house; host or cells: E. coli
T1 sequence (P37231 1-505): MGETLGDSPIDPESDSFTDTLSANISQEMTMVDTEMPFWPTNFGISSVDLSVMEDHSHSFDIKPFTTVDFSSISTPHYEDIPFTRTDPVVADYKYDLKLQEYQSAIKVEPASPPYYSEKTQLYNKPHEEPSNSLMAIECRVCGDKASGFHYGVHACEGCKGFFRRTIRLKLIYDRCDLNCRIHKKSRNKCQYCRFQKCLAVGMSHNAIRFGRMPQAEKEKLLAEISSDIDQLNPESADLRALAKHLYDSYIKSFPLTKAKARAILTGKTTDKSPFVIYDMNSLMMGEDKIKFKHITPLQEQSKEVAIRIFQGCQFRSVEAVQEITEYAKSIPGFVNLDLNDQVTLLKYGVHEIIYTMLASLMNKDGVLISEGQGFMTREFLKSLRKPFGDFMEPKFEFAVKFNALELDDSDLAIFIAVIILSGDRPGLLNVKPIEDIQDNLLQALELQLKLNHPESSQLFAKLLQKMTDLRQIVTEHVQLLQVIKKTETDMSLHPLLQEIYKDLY
The experiment is described as follows: Scintillation Proximity Assay, displacement of [3H2]Compound A from PPARγ. The conditions noted are these: SPA, radioligand. It counts as binding. From the text:
(§1) As an approach to identifying human PPAR agonists, a Scintillation Proximity Assay was used to characterize PPAR-γ, PPAR-δ, and PPAR-α ligands.
(§2) Human PPARγ2, human PPARδ and human PPARα were expressed as GST-fusion proteins in E. coli. The full length human cDNA for PPARγ 2 was subcloned into the pGEX-2 T expression vector (Amersham Pharmacia Biotech, Inc.). The full length human cDNAs for PPARδ and PPARα were subcloned into the pGEX-KT expression vector (Amersham Pharmacia Biotech, Inc.). E. coli containing the respective plasmids were propagated, induced, and harvested by centrifugation. The resuspended pellet was broken in a French press and debris removed by centrifugation. Recombinant human PPAR receptors were purified by affinity chromatography on glutathione sepharose. After application to the column, and one wash, receptor was eluted with glutathione. Glycerol (10%) was added to stabilize the receptor and aliquots were stored at −80° C.
(§3) After incubation for ˜16 h at 15° C. with shaking, the assay plates were counted in a Packard Topcount with quench correction.

Experiment [2] deals with T2, recombinant human PPARα (GST-PPARα) (Homo sapiens, UniProt Q07869).
T2 construct: The full length human cDNAs for PPARδ and PPARα were subcloned into the pGEX-KT expression vector; made in house; host or cells: E. coli
T2 sequence (Q07869 1-468): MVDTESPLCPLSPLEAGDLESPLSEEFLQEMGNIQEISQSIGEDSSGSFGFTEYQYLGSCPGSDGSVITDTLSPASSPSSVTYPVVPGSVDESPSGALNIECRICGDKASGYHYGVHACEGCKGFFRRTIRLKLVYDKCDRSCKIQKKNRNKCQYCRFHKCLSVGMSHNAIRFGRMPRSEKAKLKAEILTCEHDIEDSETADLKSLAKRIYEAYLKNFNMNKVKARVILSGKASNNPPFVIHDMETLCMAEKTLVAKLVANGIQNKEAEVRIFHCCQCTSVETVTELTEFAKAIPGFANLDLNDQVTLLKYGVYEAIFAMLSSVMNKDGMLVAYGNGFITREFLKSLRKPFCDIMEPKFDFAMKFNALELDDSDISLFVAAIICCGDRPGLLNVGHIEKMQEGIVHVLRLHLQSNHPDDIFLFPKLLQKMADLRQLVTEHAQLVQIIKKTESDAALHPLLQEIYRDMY
Description: Scintillation Proximity Assay, displacement of [3H2]Compound A from PPARα. It counts as binding.
Description: as §1, §2, §3
(In general: Scintillation proximity formats need no separation of bound from free tracer.)

Experiment [3] has as its system adjuvant-induced arthritis in female Lewis rats. As for the experimental part:
Nine groups of 10 rats each were injected with an emulsion containing 0.5 mg of Mycobacterium butyricum in 0.1 ml of light mineral oil, and a negative control group of 10 rats was not injected with adjuvant. Body weights, primary (injected) and contralateral (non-injected) paw volumes (determined by mercury displacement plethysmography) and lateral radiographs (obtained under Ketamine and Xylazine anesthesia) were determined before (day-1) and at various time points including 21 days following adjuvant injection. The rats were anesthetized with an intramuscular injection of 0.03-0.1 ml of a combination of Ketamine (87 mg/kg) and Xylazine (13 mg/kg) for radiographs and injection of adjuvant. Lateral to medial radiographs were made of both hind paws on days 0 and 21 for using the Faxitron (45 kVp, 30 seconds or 45 kVp, 1 second) and Kodak X-OMAT TL film, and were developed in an automatic processor. […] Specific criteria were used to establish the numerical grade of severity for each radiographic change. The maximum possible score per foot was 26. Compounds or vehicle were administered prophylactically beginning post injection of adjuvant and continuing for 21 days. The Compounds were prepared weekly, refrigerated in the dark until used, and vortex mixed immediately prior to administration. […] The liver, thymus and spleens of all rats were removed and weighed and both hind paws were removed and radiographed.
Two-factor (‘treatment’ and ‘time’) analysis of variance with repeated measures on ‘time’ were applied to the percent changes for body weight and foot volumes and to the rank-transformed radiographic total scores. A post hoc Dunnett's test was conducted to compare the effect of treatments to vehicle. A one-way analysis of variance was applied to the thymic and spleen weights followed by the Dunnett's test to compare the effect of treatments to vehicle.
Compounds or vehicle (0.5% Methocel in sterile water) were administered by oral gavage once daily for 21 days following induction of arthritis in female Lewis rats via the sub plantar injection of 0.1 ml of light mineral oil containing 0.5 mg of Mycobacterium butyricum. Control animals were not injected with adjuvant. Body weights were measured 1 day prior to (i.e. day 0) and at 14 and 21 days post induction of arthritis. The data in Table 1 represent the mean increase or decrease in body weight ±1 standard deviation for groups of 9 to 10 animals.
Compounds or vehicle (0.5% Methocel in sterile water) were administered by oral gavage once daily for 21 days following induction of arthritis in female Lewis rats via the sub plantar injection of 0.1 ml of light mineral oil containing 0.5 mg of Mycobacterium butyricum. Control animals were not injected with adjuvant.
Injected foot volumes were measured by mercury displacement plethysmography prior to induction of arthritis, and on days 4, 14 and 21 post induction of arthritis. The data represent the mean increase in foot volume ±1 standard deviation for groups of 9 to 10 animals. The extent of paw swelling in compound-treated animals was compared to the mean of that in the vehicle-treated group, and percentage inhibition was calculated for each dose level of compound.
Contralateral foot volumes were measured by mercury displacement plethysmography prior to, and at days 14 and 21 post induction of arthritis. The data represent the mean increase in foot volume ±1 standard deviation for groups of 9 to 10 animals. The extent of paw swelling in compound-treated animals was compared to the mean of that in the vehicle-treated group, and percentage inhibition was calculated for each dose level of compound.
[…] Data represent the mean weights of organs in mg ±1 standard deviation for groups of 9 to 10 animals.
Total radiographic scores were derived from examination of lateral radiographs obtained prior to, and on day 21 post induction of arthritis.

Experiment [4] has as its system PPAR-α, PPAR-γ and PPAR-δ. The experiment is described as follows: Classification of ligands according to their PPAR activity (Table A). Further details: species or system human.
Experiment [5] addresses T3, recombinant human PPARδ (GST-PPARδ) (Homo sapiens, UniProt Q03181).
T3 construct: The full length human cDNAs for PPARδ and PPARα were subcloned into the pGEX-KT expression vector; made in house; host or cells: E. coli
T3 sequence (Q03181 1-441): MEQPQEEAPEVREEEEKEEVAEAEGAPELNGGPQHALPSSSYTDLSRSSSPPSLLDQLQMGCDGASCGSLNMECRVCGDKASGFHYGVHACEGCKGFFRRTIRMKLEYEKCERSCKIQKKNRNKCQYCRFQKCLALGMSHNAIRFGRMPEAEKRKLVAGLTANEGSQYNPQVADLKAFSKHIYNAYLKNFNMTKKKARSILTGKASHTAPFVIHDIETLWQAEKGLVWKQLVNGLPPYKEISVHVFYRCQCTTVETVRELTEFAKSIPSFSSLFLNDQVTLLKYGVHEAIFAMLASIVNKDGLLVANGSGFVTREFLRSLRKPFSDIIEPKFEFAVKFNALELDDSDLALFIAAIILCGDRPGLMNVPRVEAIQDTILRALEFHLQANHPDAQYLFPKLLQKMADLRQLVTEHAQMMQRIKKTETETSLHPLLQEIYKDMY
The experiment is described as follows: Scintillation Proximity Assay, displacement of [3H2]Compound B from PPARδ. It counts as binding. To be noted: human PPARδ binding; read-out: IC50 (μM: SPA or BND) Delta.
Description: as §1, §2, §3

The mark [6] stands for this setting: weight at necropsy, day of euthanasia 21 (Compound 1, indomethacin) or 15 (Compounds 2-6), mean ± SD.

pKd: −log10 of the molar value.

`CCCc1c(OCCCCOc2cccc(CC(=O)O)c2)ccc2c(-c3ccccc3)noc12` [Compound A, (3-(4-(3-phenyl-7-propyl-6-benz-[4,5]-isoxazoloxy)butyloxy))phenylacetic acid, reference compound]: the pKd is ~8.57 in experiment [1] and ~8.00 in experiment [2] (SPA, radioligand).
Consider `O=C(O)c1c(Sc2ccccc2)c2cc(Cl)ccc2n1Cc1ccc(Cl)cc1` [Compound 3], for which the “Change in Secondary Foot Volume Day 14-0” value in experiment [3] (contralateral paw, p.o. q.d., Compounds 1, 2, 4, 6 30 mg/kg/day, Compound 3 50, Compound 5 100, indomethacin 2, mean ± SD) was determined as 869 ± 291 µL. Besides, the “Secondary Foot Volume % Inhibition Compared to Vehicle Day 14-0” value in experiment [3] (contralateral paw, same doses p.o. q.d.) was found to be 0%. In addition, the “Change in Primary Foot Volume Day 4-0” value in experiment [3] (injected paw, p.o. q.d., Compounds 1, 2, 4, 6 30 mg/kg/day, Compound 3 50, Compound 5 100, indomethacin 2, mean ± SD) was 1853 ± 262 µL. The “Primary Foot Volume % Inhibition Compared to Vehicle Day 4-0” value in experiment [3] (injected paw, same doses p.o. q.d.) is recorded as 0%. Further, the “Change in Primary Foot Volume Day 14-0” value in experiment [3] (injected paw, same doses p.o. q.d., mean ± SD) turned out to be 2606 ± 587 µL. Besides, the “change in body weight Day 14-0” value in experiment [3] (p.o. q.d., Compounds 1, 2, 4, 6 30 mg/kg/day, Compound 3 50, Compound 5 100, indomethacin 2 mg/kg/day, mean ± SD) is −6.6 ± 6.1 grams. Further, the “prevention of swelling of primary or secondary paws” value in experiment [3] (up to day 14, rats then euthanized) was “failed to prevent swelling of either the primary or secondary paws”. Besides, in experiment [3] (setting [6]), the “Spleen” value is 720.5 ± 155.1 mg. In experiment [3] (setting [6]), the “Thymus” value amounted to 152.7 ± 27.9 mg. In experiment [4], the “PPAR Activity” value is “Gamma Antagonist”. The IC50 in experiment [5] is > 50 µM; in experiment [2] (human PPARα binding, read-out: IC50 (μM: SPA or BND) Alpha), > 10 µM.

As usually defined, the pKd is −log10 of the Kd, conventionally taken in molar units.
